Source: paper PMC8620390, “New Multi-Targeted Antiproliferative Agents: Design and Synthesis of IC261-Based Oxindoles as Potential Tubulin, CK1 and EGFR Inhibitors” (Pharmaceuticals, 2021)

Key:
COLO-205 [1] = test: Two-dose antiproliferative screening, SRB assay, COLO-205; type: cell-based, human; conditions: triplicates; for inhibition at 1 µM / inhibition at 10 µM: Homo sapiens, COLO 205, 72 h; for inhibition at 1 µM: read-out: Growth Inhibition (%) COLO-205 1 μM Average; for inhibition at 10 µM: read-out: Growth Inhibition (%) COLO-205 10 μM Average
Experimental: (§1) MCF-7(breast adenocarcinoma), PC-3 (prostate cancer) and COLO-205 (colorectal cancer) were obtained from Nawah Scientific inc., (Mokatam, Cairo, Egypt). Cells were maintained in Dulbecco’s Modified Eagle’s media (DMEM media) supplemented with […] of streptomycin, 100 units/mL of penicillin and 10% of heat-inactivated fetal bovine serum in humidified, 5% (v/v) CO2 atmosphere at 37 °C.
(§2) Cell viability was assessed by the sulforhodamine B (SRB) assay. Aliquots of cell suspension (5 × 10^3 cells, 100 μL) were transferred into 96 well plates and incubated in complete media for 24 h. Cells were treated with another aliquot media (100 μL) containing compounds 3a–f, 4a–f, 6a–f, 7a–f, 9a–b at concentrations of 1 and 10 μM). After 72 h of drug exposure, cells were fixed by replacing media with trichloroacetic acid (TCA, 10%, 150 μL) and incubated at 4 °C for 1 h. The TCA solution was removed, and the cells were washed five times with distilled water. Aliquots of SRB solution (0.4%w/v, 70 μL) were added and incubated in a dark place at room temperature for 10 min. Plates were washed three times with 1% acetic acid and allowed to air dry overnight. Then, a solution of TRIS base and TRIS HCl (TRIS buffer, 10 mM, 150 μL) was added to dissolve protein bound SRB stain. The absorbance was measured at 540 nm using BMGLABTECH®–FLUOstar omega micro-plate reader (Ortenberg, Germany).

MCF-7 = test: Two-dose antiproliferative screening, SRB assay, MCF-7; type: cell-based; conditions: Homo sapiens, MCF7, 72 h, triplicates; for inhibition at 1 µM: read-out: Growth Inhibition (%) MCF-7 1 μM Average; for inhibition at 10 µM: read-out: Growth Inhibition (%) MCF-7 10 μM Average
Experimental: as §1, §2

PC-3 = test: Two-dose antiproliferative screening, SRB assay, PC-3; type: cell-based; conditions: triplicates; for inhibition at 1 µM / inhibition at 10 µM: Homo sapiens, PC-3, 72 h; for inhibition at 1 µM: read-out: Growth Inhibition (%) PC-3 1 μM Average; for inhibition at 10 µM: read-out: Growth Inhibition (%) PC-3 10 μM Average
Experimental: as §1, §2

COLO-205 [2] = test: IC50 against COLO-205, SRB assay; type: cell-based; conditions: Homo sapiens, 0.001–100 μM
Experimental: as §2
The same procedures used to screen two-dose anticancer activities were applied in determining IC50 values against COLO-205 using SRB assay. Cells were maintained at Roswell Park Memorial Institute media (RPMI media). The test was performed using 0.001–100 μM of compounds 4a (IC261), 4b, 4d, 4e, 6e and 6f. IC50 values were calculated using the equation for Boltzman sigmoidal concentration–response curve using the nonlinear regression fitting models by GraphPad, Prism version 5 (GraphPad Software Inc., La Jolla, CA, USA).

EGFR = target: T1, EGFR (Homo sapiens, UniProt P00533); test: EGFR kinase assay kit (Kinase-Glo MAX); type: biochemical; conditions: EGFR-TK kinase kit; read-out: EGFR Inhibition IC50 (converted)
T1 construct: enough purified recombinant EGFR enzyme, EGFR substrate, ATP, and kinase assay buffer; purchased Sigma Aldrich
Experimental: The EGFR Kinase Assay Kit (Sigma Aldrich, St. Louis, […], USA) is designed to measure EGFR Kinase activity for screening and profiling applications using Kinase-Glo® MAX as a detection reagent. The EGFR Kinase Assay Kit (Sigma Aldrich, St. Louis, […], USA) comes in a convenient 96-well format, with enough purified recombinant EGFR enzyme, EGFR substrate, ATP, and kinase assay buffer for 100 enzyme reactions. The master mixture (25 μL per well) was prepared out of Kinase assay buffer (6 μL), ATP (500 μM, 1 μL), PTK substrate (50×, 1 μL) and water (17 μL) and added to each well. Inhibitor solution was made by dissolving 4b in a liquid labelled” inhibitor buffer”. An inhibitor solution (5 μL) was then added to each well, labelled as “Test Inhibitor”. For “Positive Control” and “Blank”, add 5 μL inhibitor buffer). EGFR was thawed on ice. Its tube was spun briefly to recover the full content of the tube. The enzyme was diluted with 1× Kinase assay buffer enzyme to 1 ng/μL. The reaction was initiated by adding 20 μL of diluted EGFR enzyme to the wells designated “Positive Control” and “Test Inhibitor Control”. The plate was incubated at 30 °C for 40 min. After the 40-min reaction, the Kinase-Glo Max (50 μL) reagent was added to each well. The plate was covered with aluminum foil, incubated at room temperature for 15 min and the luminescence was measured using the microplate reader.

CK1 [3] = test: Casein Kinase 1 (CK1) 33P-ATP assay; type: biochemical
Experimental: The active CK1, kinase assay buffer, substrate solution and kinase dilution buffer were thawed on ice (^33P-ATP assay Cocktail). In a precooled microcentrifuge tube, 10 μL of kinase solution, 5 μL of substrate solution and 5 μL of cold water (4 °C) were added, then a blank control was set up. Each reaction was initiated by adding 5 μL of ^33P-ATP assay cocktail then incubated for 15 min in a water bath (30 °C), then 20 μL of the reaction mixture were spotted onto an individually precut strip of phosphocellulose P81 paper and allowed to air dry followed by washing using 1% H2SO4 with constant gentle stirring. A radioactive control was set up then 5 μL of γ-^33P-ATP assay cocktail was spotted on P81 paper, the sample was allowed to air dry for 2 min then the radioactivity count was recorded.

CK1 [4] = conditions: cited from earlier work

T1 sequence (P00533 25-1210): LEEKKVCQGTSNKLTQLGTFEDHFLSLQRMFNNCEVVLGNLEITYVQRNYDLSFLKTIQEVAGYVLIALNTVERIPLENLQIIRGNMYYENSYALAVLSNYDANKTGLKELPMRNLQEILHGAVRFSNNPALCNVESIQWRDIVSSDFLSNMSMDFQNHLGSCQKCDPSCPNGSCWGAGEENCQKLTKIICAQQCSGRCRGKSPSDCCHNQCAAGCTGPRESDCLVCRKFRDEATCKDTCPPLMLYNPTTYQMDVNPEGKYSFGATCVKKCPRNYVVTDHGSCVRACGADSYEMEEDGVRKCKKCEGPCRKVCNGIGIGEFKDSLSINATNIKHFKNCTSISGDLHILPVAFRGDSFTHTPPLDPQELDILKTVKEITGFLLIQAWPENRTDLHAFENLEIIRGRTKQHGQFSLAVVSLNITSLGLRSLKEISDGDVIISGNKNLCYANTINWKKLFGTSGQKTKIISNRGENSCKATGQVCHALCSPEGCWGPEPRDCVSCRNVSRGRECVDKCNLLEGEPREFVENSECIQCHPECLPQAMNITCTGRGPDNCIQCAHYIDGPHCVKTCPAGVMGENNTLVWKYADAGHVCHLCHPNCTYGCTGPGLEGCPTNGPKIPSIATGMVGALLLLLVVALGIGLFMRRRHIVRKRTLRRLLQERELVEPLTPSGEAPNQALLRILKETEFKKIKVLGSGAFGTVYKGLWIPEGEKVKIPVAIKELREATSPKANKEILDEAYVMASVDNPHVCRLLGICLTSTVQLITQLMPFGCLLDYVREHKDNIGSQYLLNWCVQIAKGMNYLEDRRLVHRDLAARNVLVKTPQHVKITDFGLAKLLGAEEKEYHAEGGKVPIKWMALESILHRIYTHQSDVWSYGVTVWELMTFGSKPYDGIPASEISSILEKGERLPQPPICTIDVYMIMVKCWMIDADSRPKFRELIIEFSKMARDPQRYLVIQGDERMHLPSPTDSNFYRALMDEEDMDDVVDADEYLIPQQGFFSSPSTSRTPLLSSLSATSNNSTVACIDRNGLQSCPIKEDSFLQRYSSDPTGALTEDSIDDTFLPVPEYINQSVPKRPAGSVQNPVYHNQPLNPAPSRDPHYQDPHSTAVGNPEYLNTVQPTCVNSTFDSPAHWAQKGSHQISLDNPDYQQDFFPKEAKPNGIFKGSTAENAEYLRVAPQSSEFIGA

Row | SMILES | melting point | Growth Inhibition (%) COLO-205 10 μM Average (COLO-205 [1]; 10 μM, 72 h) | inhibition at 1 µM (COLO-205 [1]) | inhibition at 10 µM (COLO-205 [1]; 10 μM) | inhibition at 1 µM (MCF-7) | inhibition at 10 µM (MCF-7) | inhibition at 1 µM (PC-3; 1 μM) | inhibition at 10 µM (PC-3) | IC50 (COLO-205 [2]) | IC50 (EGFR) | Growth Inhibition (%) PC-3 1 μM Average (PC-3; 1 μM, 72 h) | Casein Kinase I Inhibition IC50 (CK1 [3]) | fold less potent on CK1 than compound 4b (CK1 [3]; ratio of CK1 IC50 vs 4b) | inhibitory activity against CK1 (CK1 [4])
1 | COc1cc(OC)c(/C=C2/C(=O)Nc3ccc(F)cc32)c(OC)c1 [Compound 4d, (E)-5-fluoro-3-(2,4,6-trimethoxybenzylidene)indolin-2-one] | 212 to 215 °C | 64.01% | 9.69% | 64% | 10% | 66.1% | 23.8% | 58% | 1000 nM |  |  |  |  | 
2 | COc1cc(OC)c(/C=C2/C(=O)Nc3ccc(OC)cc32)c(OC)c1 [Compound 4e, (E)-5-methoxy-3-(2,4,6-trimethoxybenzylidene)indolin-2-one] | 221 to 223 °C |  | 8.05% | 31.9% | 34.5% | 68.9% | 43% | 63.3% | 300 nM | 1170 nM | 42.36% | 13.08 µg/mL | about 6.8 fold | 
3 | Nc1ccc2c(c1)/C(=C1/Nc3ccccc3/C1=N\O)C(=O)N2 [X] |  |  |  |  |  |  |  |  |  |  |  |  |  | 0.13 µM

Further lines, with some results ahead:

Row | melting point | SMILES | Growth Inhibition (%) COLO-205 10 μM Average (COLO-205 [1]; 10 μM, 72 h) | inhibition at 1 µM (COLO-205 [1]) | inhibition at 10 µM (COLO-205 [1]; 10 μM) | inhibition at 1 µM (MCF-7) | inhibition at 10 µM (MCF-7) | inhibition at 1 µM (PC-3; 1 μM) | inhibition at 10 µM (PC-3) | IC50 (COLO-205 [2]) | IC50 (EGFR) | Growth Inhibition (%) PC-3 1 μM Average (PC-3; 1 μM, 72 h) | Casein Kinase I Inhibition IC50 (CK1 [3]) | fold less potent on CK1 than compound 4b (CK1 [3]; ratio of CK1 IC50 vs 4b) | inhibitory activity against CK1 (CK1 [4])
4 | 82 to 85 °C | COc1cc(/C=C2/C(=O)N(CC(=O)OC(C)(C)C)c3cc(Cl)ccc32)cc(OC)c1OC [Compound 9a, t-Butyl (E)-2-(6-chloro-2-oxo-3-(3,4,5-trimethoxybenzylidene)indolin-1-yl)acetate] |  | 3.05% | 13% | 2.11% | 7.11% | 1.19% | 5.56% |  |  |  |  |  | 
5 | 60 to 62 °C | CCOC(=O)CN1C(=O)/C(=C/c2cc(OC)c(OC)c(OC)c2)c2ccc(Cl)cc21 [Compound 9b, Ethyl (E)-2-(6-chloro-2-oxo-3-(3,4,5-trimethoxybenzylidene)indolin-1-yl)acetate] |  | 35.1% | 40.9% | 2.3% | 6.82% | 1.66% | 13.2% |  |  |  |  |  | 
